Data: US20160317661A1, “DERMAL AND/OR TRANSDERMAL PHARMACEUTICAL COMPOSITION CONTAINING A TERPENOID COMPOUND” (EPINAMICS GMBH, priority 2013, published 2016)
In brackets after ≈: the same amount, converted by molar mass. Where a name gives a salt, the structure may show the parent alone.

Columns and labels:
[1] = Solubilities of active ingredients in carvacrol or carvacrol-containing (or thymol) formulations; format: physicochemical
Excerpt: The mixing ratios are always given as volume proportions. Liqui-Patch® are formulations of ready-to-use mixtures of polymers and other additives for making transdermal systems and are obtainable from the company epinamics GmbH. In the formulation employed here, Liqui-Patch® contains the following components: mixture of 10 g triethyl citrate, 100 g water (demineralized or medical), 100 g DynamX®, 790 g ethanol.

[2] = Solubilities of clotrimazole and testosterone in different solvents; conditions: for Solubilities in solvents with compounds employed according to the invention, compared with other solvents: Table II; for solubility: organic solvent or mixture
[3] = Volatility of carvacrol with different admixtures (spots on glass plate at 35° C., recovery); format: physicochemical; conditions: for V.C. 30 min. (volatile carvacrol) / V.C. 3 h (volatile carvacrol): carvacrol 20%, remainder ethanol, 35° C.
Procedure: For testing whether carvacrol is suitable for transdermal systems or whether carvacrol is contained sufficiently long in transdermal systems, the volatility was investigated with different admixtures. The volatility is important, in order to keep the active ingredients sufficiently long in solution in the film.
For the measurement, two spots of 5 μl of each formulation, containing 1 mg carvacrol, were applied per point of time on a glass plate kept at 35° C. Two spots of a respective point of time (30 min. and 3 h after application of the spot) were wiped off with a cotton applicator. The amount of wiped-off carvacrol was determined. The difference to 100% intended recovery rate is the volatile carvacrol. The abbreviation V. refers to “volatile”, the abbreviation C. refers to carvacrol. The share of carvacrol is always 20%, the remainder relative to the sum of carvacrol and the additive is ethanol. Amounts are given in vol.-%.

[4] = solvent: Carvacrol/Liqui-Patch (1:1), volume proportions
[5] = additive Ethylmethyl ketone 10%
[6] = additive Ethylmethyl ketone 20%
[7] = additive Isopropyl myristate 10%
[8] = additive Isopropyl myristate 20%
[9] = additive Propylene carbonate 10%
[10] = additive Propylene carbonate 20%
[11] = additive Propylene glycol 10%/menthol 5%
[12] = additive Propylene glycol 20%/menthol 10%

O=c1[nH]cc(F)c(=O)[nH]1 [5-Fluorouracil]
Dissolved amount ([1]; solvent: Carvacrol): 25 mg/mL

Nc1cc(=O)[nH]c(=O)[nH]1 [6-Aminouracil]
Dissolved amount ([1]; solvent: Carvacrol): <50 mg/mL

Oc1cccc2cccnc12 [8-Hydroxyquinoline]
Dissolved amount ([1]; solvent: Carvacrol): >100 mg/mL

C=C(c1ccc(C(=O)O)cc1)c1cc2c(cc1C)C(C)(C)CCC2(C)C [Bexarotene]
Dissolved amount ([1]; solvent: Carvacrol): 60 mg/mL | Dissolved amount [1, 4]: 30 mg/mL

Clc1ccccc1C(c1ccccc1)(c1ccccc1)n1ccnc1 [Clotrimazole]
Dissolved amount ([1]; solvent: Carvacrol): 410 mg/mL | Solubilities in solvents with compounds employed according to the invention, compared with other solvents [2]: considerably higher

O=c1ccc2ccccc2o1 [Coumarin]
Dissolved amount ([1]; solvent: Carvacrol): >200 mg/mL

O=C(O)c1cc(=O)c2c(OCC(O)COc3cccc4oc(C(=O)O)cc(=O)c34)cccc2o1 [Cromoglicic acid-Na, Cromoglicic acid disodium salt]
Dissolved amount ([1]; solvent: Carvacrol): 50 mg/mL

COc1cc(/C=C/C(=O)CC(=O)/C=C/c2ccc(O)c(OC)c2)ccc1O [Curcumin]
Dissolved amount ([1]; solvent: Carvacrol): 20 mg/mL

O=c1oc2c(O)c(O)cc3c(=O)oc4c(O)c(O)cc1c4c23 [Ellagic acid]
Dissolved amount ([1]; solvent: Carvacrol): 60 mg/mL

CC[C@H]1OC(=O)[C@H](C)[C@@H](O[C@H]2C[C@@](C)(OC)[C@@H](O)[C@H](C)O2)[C@H](C)[C@@H](O[C@@H]2O[C@H](C)C[C@H](N(C)C)[C@H]2O)[C@](C)(O)C[C@@H](C)C(=O)[C@H](C)[C@@H](O)[C@]1(C)O [Erythromycin]
Dissolved amount ([1]; solvent: Carvacrol): 110 mg/mL

Cl.Cl.Fc1ccc(C(c2ccc(F)cc2)N2CCN(C/C=C/c3ccccc3)CC2)cc1 [Flunarizine*2HCl]
Dissolved amount ([1]; solvent: Carvacrol): 60 mg/mL

CN1C2CCCC1CC(NC(=O)c1nn(C)c3ccccc13)C2 (stereo not drawn) [Granisetron]
Dissolved amount ([1]; solvent: Carvacrol 62.5% Methanol 31.25% 2M NaOH/H2O 6.25%): 71.25 mg/mL

O=C(CCCN1CCC(O)(c2ccc(Cl)cc2)CC1)c1ccc(F)cc1 [Haloperidol]
Dissolved amount ([1]; solvent: Carvacrol): 100 mg/mL

CC(=O)N1CCN(c2ccc(OCC3COC(Cn4ccnc4)(c4ccc(Cl)cc4Cl)O3)cc2)CC1 (stereo not drawn) [Ketoconazole]
Dissolved amount ([1]; solvent: Carvacrol): 140 mg/mL

CCCCCCCCCCCC(=O)O [Lauric acid]
Dissolved amount ([1]; solvent: Carvacrol): 500 mg/mL | Dissolved amount [1, 4]: 250 mg/mL

CCn1cc(C(=O)O)c(=O)c2ccc(C)nc21 [Nalidixic Acid]
Dissolved amount ([1]; solvent: Carvacrol): 108 mg/mL

O=C(O)c1ccccc1O [Salicylic acid]
Dissolved amount ([1]; solvent: Carvacrol/Methanol (1:1), volume proportions): 240 mg/mL

CN(C/C=C/C#CC(C)(C)C)Cc1cccc2ccccc12 [Terbinafine]
Dissolved amount ([1]; solvent: Thymol/Ethanol (1:1)): 406 mg/mL

C[C@]12CC[C@H]3[C@@H](CCC4=CC(=O)CC[C@@]43C)[C@@H]1CC[C@@H]2O [Testosterone]
Dissolved amount ([1]; solvent: Carvacrol): 220 mg/mL | Solubilities in solvents with compounds employed according to the invention, compared with other solvents [2]: considerably higher | solubility ([2]; solvent: 4-Methyl-Anisole): < 250 mg/mL | solubility ([2]; solvent: 20% 4MS/80% EtOH): 335 mg/mL (≈ 1160 mM) | solubility ([2]; solvent: 20% (S)-(—)-Limonene/80% Ethanol): 200 mg/mL (≈ 693 mM) | solubility ([2]; solvent: 20% Anisole/80% EtOH): 500 mg/mL (≈ 1730 mM) | solubility ([2]; solvent: 20% Carvacrol/80% Acetone): 170 mg/mL (≈ 589 mM) | solubility ([2]; solvent: 20% Carvacrol/80% EtOH): 260 mg/mL (≈ 901 mM) | solubility ([2]; solvent: 20% Carvacrol/80% LP (Liqui-Patch)): 250 mg/mL (≈ 867 mM) | solubility ([2]; solvent: 20% Gamma-Terpinene/80% ethalol): 200 mg/mL (≈ 693 mM) | solubility ([2]; solvent: 20% Guaiacol/80% EtOH): 300 mg/mL (≈ 1040 mM) | solubility ([2]; solvent: 20% Guaiacol/80% LP (Liqui-Patch)): 270 mg/mL (≈ 936 mM) | solubility ([2]; solvent: 20% Thymol/80% Acetone): 180 mg/mL (≈ 624 mM) | solubility ([2]; solvent: 20% Thymol/80% EtOH): 330 mg/mL (≈ 1140 mM) | solubility ([2]; solvent: 20% Thymol/80% LP (Liqui-Patch)): 300 mg/mL (≈ 1040 mM) | solubility ([2]; solvent: 20% p-Cymene/80% Ethanol): 300 mg/mL (≈ 1040 mM) | solubility ([2]; solvent: (S)-(—)-Limonene): < 100 mg/mL | solubility ([2]; solvent: Acetone): 60 mg/mL (≈ 208 mM) | solubility ([2]; solvent: Anisole): < 100 mg/mL | solubility ([2]; solvent: Ethanol): 90 mg/mL (≈ 312 mM) | solubility ([2]; solvent: Gamma-Terpinene): < 100 mg/mL | solubility ([2]; solvent: Guaiacol): 270 mg/mL (≈ 936 mM) | solubility ([2]; solvent: LP (Liqui-Patch)): 190 mg/mL (≈ 659 mM) | solubility ([2]; solvent: Methyl salicylate (4MS)): < 100 mg/mL | solubility ([2]; solvent: carvacrol): 230 mg/mL (≈ 797 mM) | solubility ([2]; solvent: p-Cymene): < 100 mg/mL

CC1=CC(=O)C(C(C)C)=CC1=O [Thymoquinone]
Dissolved amount ([1]; solvent: Carvacrol): >100 mg/mL

O=c1[nH]c(=O)c2[nH]c(=O)[nH]c2[nH]1 [Uric acid]
Dissolved amount ([1]; solvent: Carvacrol): <20 mg/mL

Cc1ccc(C(C)C)cc1O [carvacrol]
V.C. 30 min. (volatile carvacrol) [3, 5]: 33% | V.C. 3 h (volatile carvacrol) [3, 5]: 100% | V.C. 30 min. (volatile carvacrol) [3, 6]: 45% | V.C. 3 h (volatile carvacrol) [3, 6]: 100% | V.C. 30 min. (volatile carvacrol) ([3]; additive Glycerol 10%): 28% | V.C. 3 h (volatile carvacrol) ([3]; additive Glycerol 10%): 96% | V.C. 30 min. (volatile carvacrol) ([3]; additive Glycerol 20%): 33% | V.C. 3 h (volatile carvacrol) ([3]; additive Glycerol 20%): 88% | V.C. 30 min. (volatile carvacrol) [3, 7]: 26% | V.C. 3 h (volatile carvacrol) [3, 7]: 46% | V.C. 30 min. (volatile carvacrol) [3, 8]: 24% | V.C. 3 h (volatile carvacrol) [3, 8]: 32% | V.C. 30 min. (volatile carvacrol) [3, 9]: 29% | V.C. 3 h (volatile carvacrol) [3, 9]: 49% | V.C. 30 min. (volatile carvacrol) [3, 10]: 11% | V.C. 3 h (volatile carvacrol) [3, 10]: 24% | V.C. 30 min. (volatile carvacrol) [3, 11]: 40% | V.C. 3 h (volatile carvacrol) [3, 11]: 97% | V.C. 30 min. (volatile carvacrol) ([3]; additive Propylene glycol 10%): 40% | V.C. 3 h (volatile carvacrol) ([3]; additive Propylene glycol 10%): 51% | V.C. 30 min. (volatile carvacrol) [3, 12]: 0% | V.C. 3 h (volatile carvacrol) [3, 12]: 46% | V.C. 30 min. (volatile carvacrol) ([3]; additive Propylene glycol 20%): 1% | V.C. 3 h (volatile carvacrol) ([3]; additive Propylene glycol 20%): 33% | V.C. 30 min. (volatile carvacrol) ([3]; additive Water 10%): 18% | V.C. 3 h (volatile carvacrol) ([3]; additive Water 10%): 94% | V.C. 30 min. (volatile carvacrol) ([3]; additive Water 20%): 0% | V.C. 3 h (volatile carvacrol) ([3]; additive Water 20%): 94% | Volatility of carvacrol ([3]; by propylene carbonate, propylene glycol, or isopropyl myristate as additive): reduced
